System: MV-4-11 cells
Assay: Gene expression microarray analysis (Affymetrix PrimeView) and GSEA
Format: cell-based, human
Parameters: RFU PODN (11730768_x_at) / Fold change /veh PODN (11730768_x_at) / RFU LINC00158 (11744669_a_at) / Fold change /veh LINC00158 (11744669_a_at) / RFU DUSP10 (11751237_a_at) / Fold change /veh DUSP10 (11751237_a_at) / RFU ID3 (11757404_x_at) / Fold change /veh ID3 (11757404_x_at) / RFU PLEKHG5 (11737974_s_at) / Fold change /veh PLEKHG5 (11737974_s_at) / RFU LRRC4B (11730491_at) / Fold change /veh LRRC4B (11730491_at) / RFU GIMAP4 (11747438_a_at) / Fold change /veh GIMAP4 (11747438_a_at) / RFU KRT8 (11758183_x_at) / Fold change /veh KRT8 (11758183_x_at) / RFU CNN1 (11734310_a_at) / Fold change /veh CNN1 (11734310_a_at) / RFU VPS37D (11726825_at) / Fold change /veh VPS37D (11726825_at) / RFU C10orf10 (11716522_x_at) / Fold change /veh C10orf10 (11716522_x_at) / RFU KIR2DL2 /// KIR2DL4 /// KIR2DL5A /// KIR2DL5B /// KIR2DS1 /// KIR2DS2 /// KIR2DS3 /// KIR2DS4 /// KIR3DL3 /// KIR3DL3 /// KIR3DS1 (11738374_at) / Fold change /veh KIR2DL2 /// KIR2DL4 /// KIR2DL5A /// KIR2DL5B /// KIR2DS1 /// KIR2DS2 /// KIR2DS3 /// KIR2DS4 /// KIR3DL3 /// KIR3DL3 /// KIR3DS1 (11738374_at) / RFU C1QL1 (11718748_at) / Fold change /veh C1QL1 (11718748_at) / RFU TMPRSS4 (11747572_a_at) / Fold change /veh TMPRSS4 (11747572_a_at) / RFU HAMP (11756126_x_at) / Fold change /veh HAMP (11756126_x_at) / RFU RNFT2 (11725882_a_at) / Fold change /veh RNFT2 (11725882_a_at) / RFU NR4A2 (11747474_a_at) / Fold change /veh NR4A2 (11747474_a_at) / RFU ABCC12 (11746883_a_at) / Fold change /veh ABCC12 (11746883_a_at) / RFU TMEM136 (11760407_x_at) / Fold change /veh TMEM136 (11760407_x_at) / RFU CLDN22 /// WWC2 (11732394_at) / Fold change /veh CLDN22 /// WWC2 (11732394_at) / RFU HLA-DPB1 (11760878_x_at) / Fold change /veh HLA-DPB1 (11760878_x_at) / RFU SPINT1 (11716480_a_at) / Fold change /veh SPINT1 (11716480_a_at) / RFU GAP43 (11754022_s_at) / Fold change /veh GAP43 (11754022_s_at) / RFU A4GNT (11735810_at) / Fold change /veh A4GNT (11735810_at) / RFU PRB3 (11715151_x_at) / Fold change /veh PRB3 (11715151_x_at) / RFU TUBB4B (11761932_at) / Fold change /veh TUBB4B (11761932_at) / RFU CAPN14 (11732068_a_at) / Fold change /veh CAPN14 (11732068_a_at) / RFU TMCC2 (11721928_a_at) / Fold change /veh TMCC2 (11721928_a_at) / RFU IRGQ (11745062_a_at) / Fold change /veh IRGQ (11745062_a_at) / RFU FAM174B (11720279_a_at) / Fold change /veh FAM174B (11720279_a_at) / RFU TMPRSS4 (11748680_a_at) / Fold change /veh TMPRSS4 (11748680_a_at) / RFU FAM212B (11763350_a_at) / Fold change /veh FAM212B (11763350_a_at) / RFU PLEKHG5 (11743358_a_at) / Fold change /veh PLEKHG5 (11743358_a_at) / RFU ZSCAN30 (11745921_a_at) / Fold change /veh ZSCAN30 (11745921_a_at) / RFU CMKLR1 (11741424_a_at) / Fold change /veh CMKLR1 (11741424_a_at) / RFU LOC101060620 /// MAPK8IP1 (11723275_at) / Fold change /veh LOC101060620 /// MAPK8IP1 (11723275_at) / RFU SPTSSB (11747773_x_at) / Fold change /veh SPTSSB (11747773_x_at) / RFU PRSS12 (11739890_at) / Fold change /veh PRSS12 (11739890_at) / RFU BIN1 (11741810_x_at) / Fold change /veh BIN1 (11741810_x_at) / RFU WNT11 (11732464_a_at) / Fold change /veh WNT11 (11732464_a_at) / RFU C10orf10 (11716521_a_at) / Fold change /veh C10orf10 (11716521_a_at) / RFU C5orf56 (11738089_at) / Fold change /veh C5orf56 (11738089_at) / RFU CYB561 (11721691_x_at) / Fold change /veh CYB561 (11721691_x_at) / RFU ANKRD19P (11752326_a_at) / Fold change /veh ANKRD19P (11752326_a_at) / RFU OR2T12 /// OR2T33 /// OR2T8 (11738714_s_at) / Fold change /veh OR2T12 /// OR2T33 /// OR2T8 (11738714_s_at) / RFU VCAN (11748164_a_at) / Fold change /veh VCAN (11748164_a_at) / RFU JSRP1 (11732532_at) / Fold change /veh JSRP1 (11732532_at) / RFU KRTAP10-11 (11738290_x_at) / Fold change /veh KRTAP10-11 (11738290_x_at) / RFU MYO3A (11730013_a_at) / Fold change /veh MYO3A (11730013_a_at) / RFU EBF3 (11725865_a_at) / Fold change /veh EBF3 (11725865_a_at) / RFU CAMK2N1 (11719241_x_at) / Fold change /veh CAMK2N1 (11719241_x_at) / RFU C5orf56 (11738088_a_at) / Fold change /veh C5orf56 (11738088_a_at) / RFU OLFML3 (11715873_a_at) / Fold change /veh OLFML3 (11715873_a_at) / RFU LOC100653217 /// NTM (11731650_a_at) / Fold change /veh LOC100653217 /// NTM (11731650_a_at) / RFU MAPK11 (11762145_a_at) / Fold change /veh MAPK11 (11762145_a_at) / RFU FIZ1 (11724087_x_at) / Fold change /veh FIZ1 (11724087_x_at) / RFU OASL (11726364_x_at) / Fold change /veh OASL (11726364_x_at) / RFU SOX15 (11748057_x_at) / Fold change /veh SOX15 (11748057_x_at) / RFU CD79A (11719716_a_at) / Fold change /veh CD79A (11719716_a_at) / RFU HIST1H1D (11736915_at) / Fold change /veh HIST1H1D (11736915_at) / RFU CASKIN2 (11723855_a_at) / Fold change /veh CASKIN2 (11723855_a_at) / RFU LOC730098 (11760151_x_at) / Fold change /veh LOC730098 (11760151_x_at) / RFU OR4N2 (11742367_at) / Fold change /veh OR4N2 (11742367_at) / RFU PRRT2 (11749266_a_at) / Fold change /veh PRRT2 (11749266_a_at) / RFU SNX32 (11753110_a_at) / Fold change /veh SNX32 (11753110_a_at) / RFU CDHR5 (11726645_a_at) / Fold change /veh CDHR5 (11726645_a_at) / RFU RCAN1 (11760418_a_at) / Fold change /veh RCAN1 (11760418_a_at) / RFU FAM167A (11723789_a_at) / Fold change /veh FAM167A (11723789_a_at) / RFU FAM26E (11764081_at) / Fold change /veh FAM26E (11764081_at) / RFU ISYNA1 (11749810_s_at) / Fold change /veh ISYNA1 (11749810_s_at) / RFU ACY1 (11761880_at) / Fold change /veh ACY1 (11761880_at) / RFU 11764098_at / Fold change /veh 11764098_at / RFU SAMD14 (11745864_x_at) / Fold change /veh SAMD14 (11745864_x_at) / RFU NPB (11741838_a_at) / Fold change /veh NPB (11741838_a_at) / RFU TMPRSS6 (11731388_a_at) / Fold change /veh TMPRSS6 (11731388_a_at) / RFU KRTAP10-2 (11738614_at) / Fold change /veh KRTAP10-2 (11738614_at) / RFU ARHGAP8 /// PRR5-ARHGAP8 (11727945_x_at) / Fold change /veh ARHGAP8 /// PRR5-ARHGAP8 (11727945_x_at) / RFU KRTAP5-7 /// NADSYN1 (11734609_at) / Fold change /veh KRTAP5-7 /// NADSYN1 (11734609_at) / RFU RASL12 (11751679_a_at) / Fold change /veh RASL12 (11751679_a_at) / RFU CDKN2B (11736163_a_at) / Fold change /veh CDKN2B (11736163_a_at) / RFU PRF1 (11729649_at) / Fold change /veh PRF1 (11729649_at) / RFU, ZNF638 /// ZNF638-IT1 / Fold change vs veh, ZNF638 /// ZNF638-IT1 / RFU, PANK3 / Fold change vs veh, PANK3 / RFU, SH3YL1 / Fold change vs veh, SH3YL1 / RFU, ZEB2 / Fold change vs veh, ZEB2 / RFU, NRIP1 / Fold change vs veh, NRIP1 / RFU, PTTG1IP / Fold change vs veh, PTTG1IP / RFU, CAPN2 / Fold change vs veh, CAPN2 / RFU, MED14 / Fold change vs veh, MED14 / RFU, SNORA58 / Fold change vs veh, SNORA58 / RFU, C1orf63 / Fold change vs veh, C1orf63 / RFU, LRRFIP1 / Fold change vs veh, LRRFIP1 / RFU, NDUFAF7 / Fold change vs veh, NDUFAF7 / RFU, SLC12A2 / Fold change vs veh, SLC12A2 / RFU, IBTK / Fold change vs veh, IBTK / RFU, ESF1 / Fold change vs veh, ESF1 / Fold change vs veh, TMEM50B / RFU, TAOK1 / Fold change vs veh, TAOK1 / RFU, ACBD3 / Fold change vs veh, ACBD3 / RFU, TMA16 / Fold change vs veh, TMA16 / RFU, RWDD3 / Fold change vs veh, RWDD3 / RFU, BCAT1 / Fold change vs veh, BCAT1 / RFU, EDEM3 / Fold change vs veh, EDEM3 / RFU, TMEM33 / Fold change vs veh, TMEM33 / RFU, WDR75 / Fold change vs veh, WDR75 / RFU, AHCTF1 / Fold change vs veh, AHCTF1 / RFU, TFRC / Fold change vs veh, TFRC / RFU, ZDHHC17 / Fold change vs veh, ZDHHC17 / RFU, NOM1 / Fold change vs veh, NOM1 / RFU, ARL8B / Fold change vs veh, ARL8B / RFU, ZBTB11 / Fold change vs veh, ZBTB11 / RFU, TAMM41 / Fold change vs veh, TAMM41 / RFU, KIAA1704 /// LOC100996395 / Fold change vs veh, KIAA1704 /// LOC100996395 / RFU, ING1 / Fold change vs veh, ING1 / RFU, TRMT61B / Fold change vs veh, TRMT61B / RFU, FUBP3 / Fold change vs veh, FUBP3 / RFU, TP53 / Fold change vs veh, TP53 / RFU, TNKS2 / Fold change vs veh, TNKS2 / RFU, ZFP14 / Fold change vs veh, ZFP14 / RFU, ACTR2 / Fold change vs veh, ACTR2 / RFU, PPP3R1 / Fold change vs veh, PPP3R1 / RFU, PIK3R1 / Fold change vs veh, PIK3R1 / RFU, HNRNPA1 / Fold change vs veh, HNRNPA1 / RFU, RNF170 / Fold change vs veh, RNF170 / RFU, ZNF28 / Fold change vs veh, ZNF28 / RFU, RNGTT / Fold change vs veh, RNGTT / RFU, OGT / Fold change vs veh, OGT / RFU, BRD1 / Fold change vs veh, BRD1 / RFU, MARS / Fold change vs veh, MARS / RFU, ZNF655 / Fold change vs veh, ZNF655 / RFU, FAHD1 / Fold change vs veh, FAHD1 / RFU, BDP1 / Fold change vs veh, BDP1 / RFU, LRRCC1 / Fold change vs veh, LRRCC1 / RFU, ARID1A / Fold change vs veh, ARID1A / RFU, ZNF146 / Fold change vs veh, ZNF146 / RFU, ZNF330 / Fold change vs veh, ZNF330 / RFU, GPN3 / Fold change vs veh, GPN3 / RFU, C9orf123 / Fold change vs veh, C9orf123 / RFU, N4BP2L2 / Fold change vs veh, N4BP2L2 / RFU, ARFIP1 / Fold change vs veh, ARFIP1 / RFU, FAM179B / Fold change vs veh, FAM179B / RFU, BCL10 / Fold change vs veh, BCL10 / RFU, UHRF1BP1L / Fold change vs veh, UHRF1BP1L / RFU, BET1 / Fold change vs veh, BET1 / RFU, CNOT2 / Fold change vs veh, CNOT2 / RFU, ZNF268 / Fold change vs veh, ZNF268 / Fold change vs veh, ZNF507 / RFU, DGCR2 / Fold change vs veh, DGCR2 / RFU, WDSUB1 / Fold change vs veh, WDSUB1 / Fold change vs veh, HSP90B1 /// MIR3652 / RFU, ADSS / Fold change vs veh, ADSS / RFU, GK / Fold change vs veh, GK / RFU, ZNF148 / Fold change vs veh, ZNF148 / RFU, TAF9 / Fold change vs veh, TAF9 / RFU, SLC1A5 / Fold change vs veh, SLC1A5 / RFU, SLMO2 / Fold change vs veh, SLMO2 / RFU, ABCC4 / Fold change vs veh, ABCC4 / RFU, LOC101060439 /// RAP1B / Fold change vs veh, LOC101060439 /// RAP1B / RFU, RFX7 / Fold change vs veh, RFX7 / RFU, GTPBP10 / Fold change vs veh, GTPBP10 / RFU, CNEP1R1 / Fold change vs veh, CNEP1R1 / RFU, BIVM-ERCC5 /// ERCC5 / Fold change vs veh, BIVM-ERCC5 /// ERCC5 / RFU, ILF3 / Fold change vs veh, ILF3 / RFU 11762660_at / Fold change /veh 11762660_at / RFU VCAN (11757783_s_at) / Fold change /veh VCAN (11757783_s_at) / RFU DDX43 (11728927_at) / Fold change /veh DDX43 (11728927_at) / RFU KRT8 (11758188_x_at) / Fold change /veh KRT8 (11758188_x_at) / RFU NKD1 (11759106_at) / Fold change /veh NKD1 (11759106_at) / RFU SRD5A1 (11742802_a_at) / Fold change /veh SRD5A1 (11742802_a_at) / RFU TPSAB1 /// TPSB2 (11721975_s_at) / Fold change /veh TPSAB1 /// TPSB2 (11721975_s_at) / RFU GSTM3 (11746129_a_at) / Fold change /veh GSTM3 (11746129_a_at) / RFU IL23R (11737362_x_at) / Fold change /veh IL23R (11737362_x_at) / RFU TMEM51 (11727254_a_at) / Fold change /veh TMEM51 (11727254_a_at) / RFU PIWIL2 (11732686_x_at) / Fold change /veh PIWIL2 (11732686_x_at) / RFU ORM1 (11744905_x_at) / Fold change /veh ORM1 (11744905_x_at) / RFU CCDC152 (11743942_at) / Fold change /veh CCDC152 (11743942_at) / RFU ECM1 (11717891_a_at) / Fold change /veh ECM1 (11717891_a_at) / RFU IL23R (11748794_a_at) / Fold change /veh IL23R (11748794_a_at) / RFU TNFAIP8L3 (11732012_x_at) / Fold change /veh TNFAIP8L3 (11732012_x_at) / RFU MBOAT4 (11741988_at) / Fold change /veh MBOAT4 (11741988_at) / RFU 11764193_at / Fold change /veh 11764193_at / RFU TMEM53 (11763286_at) / Fold change /veh TMEM53 (11763286_at) / RFU MAGEB2 (11727129_at) / Fold change /veh MAGEB2 (11727129_at) / RFU TMEM200A (11744735_a_at) / Fold change /veh TMEM200A (11744735_a_at) / RFU CCDC152 (11751479_a_at) / Fold change /veh CCDC152 (11751479_a_at) / RFU FAM211A (11726209_a_at) / Fold change /veh FAM211A (11726209_a_at) / RFU RGS16 (11746705_a_at) / Fold change /veh RGS16 (11746705_a_at) / RFU VCAN (11755009_s_at) / Fold change /veh VCAN (11755009_s_at) / RFU RHOB (11743442_s_at) / Fold change /veh RHOB (11743442_s_at) / RFU RGS16 (11720943_a_at) / Fold change /veh RGS16 (11720943_a_at) / RFU RGS16 (11720944_at) / Fold change /veh RGS16 (11720944_at) / RFU, VPS4B / Fold change vs veh, VPS4B / RFU, CREB1 / Fold change vs veh, CREB1 / RFU, DNAJC13 / Fold change vs veh, DNAJC13 / RFU, GNAQ / Fold change vs veh, GNAQ / RFU, CDK5R1 / Fold change vs veh, CDK5R1 / RFU, ZRANB3 / Fold change vs veh, ZRANB3 / RFU, CUL4A / Fold change vs veh, CUL4A / RFU, CCNY / Fold change vs veh, CCNY / RFU, UFL1 / Fold change vs veh, UFL1 / RFU, COG3 / Fold change vs veh, COG3 / RFU, DIAPH2 / Fold change vs veh, DIAPH2 / RFU, SKA2 / Fold change vs veh, SKA2 / RFU, AFF3 / Fold change vs veh, AFF3 / RFU, LMF1 / Fold change vs veh, LMF1 / RFU, IPO11 / Fold change vs veh, IPO11 / RFU, DFFB / Fold change vs veh, DFFB / RFU, FOXP1 / Fold change vs veh, FOXP1 / RFU, CARD8 / Fold change vs veh, CARD8 / RFU, STRN3 / Fold change vs veh, STRN3 / RFU, ADK / Fold change vs veh, ADK / RFU, RASSF2 / Fold change vs veh, RASSF2 / RFU, WIPF1 / Fold change vs veh, WIPF1 / RFU, LARP1B / Fold change vs veh, LARP1B / RFU, RASA1 / Fold change vs veh, RASA1 / RFU, RB1 / Fold change vs veh, RB1 / RFU, PPFIA1 / Fold change vs veh, PPFIA1 / RFU, MAT2A / Fold change vs veh, MAT2A / RFU, CCT5 / Fold change vs veh, CCT5 / RFU, WDR92 / Fold change vs veh, WDR92 / RFU, CUX1 / Fold change vs veh, CUX1 / RFU, TTC7A / Fold change vs veh, TTC7A / RFU, TMEM135 / Fold change vs veh, TMEM135 / RFU, DEPTOR / Fold change vs veh, DEPTOR / RFU, CPM / Fold change vs veh, CPM / RFU, DNAJB6 / Fold change vs veh, DNAJB6 / RFU, CACNA2D3 / Fold change vs veh, CACNA2D3 / RFU, DTX4 / Fold change vs veh, DTX4 / RFU, TFCP2 / Fold change vs veh, TFCP2 / RFU, GMCL1 /// GMCL1P1 / Fold change vs veh, GMCL1 /// GMCL1P1 / RFU, AEBP2 / Fold change vs veh, AEBP2 / RFU, SNHG1 /// SNORD22 /// SNORD25 /// SNORD26 /// SNORD27 /// SNORD28 /// SNORD29 /// SNORD31 / Fold change vs veh, SNHG1 /// SNORD22 /// SNORD25 /// SNORD26 /// SNORD27 /// SNORD28 /// SNORD29 /// SNORD31 / Fold change (Aza/veh), C12orf56 (ProbeSet 11735607_a_at) / Fold change (ACY-1035/veh), C12orf56 (ProbeSet 11735607_a_at) / Fold change (Aza/veh), FGFR1OP (ProbeSet 11751329_s_at) / Fold change (ACY-1035/veh), FGFR1OP (ProbeSet 11751329_s_at) / Fold change (Aza/veh), VPS36 (ProbeSet 11739960_a_at) / Fold change (ACY-1035/veh), VPS36 (ProbeSet 11739960_a_at) / RFU SYPL1 (11715823_x_at) / Fold change /veh SYPL1 (11715823_x_at) / RFU IGFBP7 (11715501_s_at) / Fold change /veh IGFBP7 (11715501_s_at) / RFU REEP3 (11722064_at) / Fold change /veh REEP3 (11722064_at) / RFU IGLL1 (11728026_x_at) / Fold change /veh IGLL1 (11728026_x_at): dose or concentration left out as unconfirmed
Details: MV-4-11 cells, 48 hours

Nc1ncn([C@@H]2O[C@H](CO)[C@@H](O)[C@H]2O)c(=O)n1 [azacitidine]
RFU BIN1 (11741810_x_at): 29.77 RFU

Source: paper PMC5218480 (PLoS ONE, 2017)
